Consider 2 compounds from patent US20070208087A1, “Compounds, compositions and methods for the treatment of inflammatory diseases” (priority 2001, published 2007).

Test [1] deals with EOC 13.31 microglial cells. In words: NO release inhibition screen in LPS/IFNγ stimulated microglia, Griess reaction at 48 hours (Example 7). Type of test: cell-based. The following applies: for inhibition at 50 µM: Microglia, 48 h. The procedure, abridged: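 EOC 13.31 microglia, confluent at 24 h, stimulated with 10 μg/ml LPS plus 10 ng/ml IFNγ in presence of 50 uM test compound. Nitric oxide release quantified by Griess reaction at 48 hours.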

Test [2] has as its system EOC 13.31 microglia cells. The test is described as follows: Inhibition of NO release from microglia following 24 hours pretreatment (Example 10). Particulars: for inhibition at 50 µM: Microglia. Type of test: cell-based. Put shortly: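 Confluent EOC 13.31 cells pretreated 24 hours with 50 μM compound (from 10 mM DMSO stock), then stimulated with 10 μg/ml LPS plus 10 ng/ml IFNγ without media change. After a further 48 hours, NO release was measured by Griess Reaction.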

Where [3] appears, read: 50 uM pretreatment 24 hours, then LPS/IFNγ 48 hours, single replicates.
[4] abbreviates: 50 uM pretreatment 24 hours, then LPS/IFNγ 48 hours, read-out: Avg % Inhibition.
The mark [5] stands for this setting: 50 uM pretreatment 24 hours, then LPS/IFNγ 48 hours, single replicates, read-out: % inhibition.
Where [6] appears, read: 50 μM pretreatment, read-out: inhibition of NO release following pretreatment.

Where “and” joins values, the source holds several entries; their conditions need not be identical. Identical values can stand only once. Like-named read-outs stand apart in the source and are kept apart here.

Broadly, the % inhibition is the share of the control response that was lost under treatment. For orientation: inhibition means the relative decrease from the control value, in per cent. In the case of `Oc1ccc(CNCc2ccc(O)c(O)c2)cc1O` [Compound 73, bis(3,4-dihydroxybenzyl)amine], the “μM NO release Avg” value in test [1] (50 uM + 10 μg/ml LPS/10 ng/ml IFNγ, 48 hours) turned out to be 2.301 µM. Also, the “% inhibition” value in test [1] (50 uM + 10 μg/ml LPS/10 ng/ml IFNγ, 48 hours, single replicates, 50 µM) is 83.62% and 94.98%. Also, the “inhibition of NO release, in words” value in test [1] (50 uM, LPS/IFNγ stimulated microglia) is “effective inhibitors of NO release”. Moreover, the inhibition at 50 µM is 91.7% in test [1] (50 uM + 10 μg/ml LPS/10 ng/ml IFNγ, 48 hours, read-out: Avg. % Inhibition); 96.5% in test [1] (50 uM + 10 μg/ml LPS/10 ng/ml IFNγ, 48 hours, single replicates, read-out: % inhibition); 100% in test [2] (setting [4]); 100% in test [2] (setting [5]); greater than 75% in test [2] (setting [6]). Besides, in test [2] (setting [3]), the “μM NO release” value was found to be 0.000 µM.

Turning to `O=C(NCc1ccc(O)c(O)c1)C(=Cc1ccc(O)c(O)c1)NC(=O)c1ccc(O)c(O)c1` [Compound 21, α-(3,4-dihydroxybenzamido)-3,4-dihydroxycinnamic acid 3,4-dihydroxybenzyl amide], the “% inhibition” value in test [2] (setting [3]) was 82.29% and 84.17%. In addition, the inhibition at 50 µM in test [2] (setting [4]) is 83.9%; in test [2] (setting [5]), 85.2%; in test [2] (setting [6]) it was greater than 75%.
